Experimental data taken from ChEMBL document CHEMBL5360560, “Anti-Vibrio potential of natural products from marine microorganisms” (Eur J Med Chem, 2023).
≈ marks a conversion by molar mass, not a printed value.

Key:
Vibrio parahaemolyticus [1] = experiment: Antimicrobial activity against Vibrio parahaemolyticus assessed as bacterial growth inhibition; type: functional
Vibrio cholerae = experiment: Antimicrobial activity against Vibrio cholerae assessed as bacterial growth inhibition; type: functional
Vibrio parahaemolyticus [2] = experiment: Antimicrobial activity against Vibrio parahaemolyticus QDIO-10 assessed as bacterial growth inhibition measured after 24 hrs by microtitre plate reader assay; type: functional
Vibrio harveyi [3] = experiment: Antimicrobial activity against Vibrio harveyi QDIO-9 assessed as bacterial growth inhibition measured after 24 hrs by microtitre plate reader assay; type: functional
Vibrio anguillarum [4] = experiment: Antimicrobial activity against Vibrio anguillarum QDIO-8 assessed as bacterial growth inhibition measured after 24 hrs by microtitre plate reader assay; type: functional
Vibrio campbellii = experiment: Antibacterial activity against Vibrio campbellii MCCC E333 assessed as cell growth inhibition measured after 24 hrs by resazurin dye based assay; type: functional
Vibrio vulnificus [5] = experiment: Antibacterial activity against Vibrio vulnificus MCCC E1758 assessed as cell growth inhibition measured after 24 hrs by resazurin dye based assay; type: functional
Vibrio rotiferianus = experiment: Antibacterial activity against Vibrio rotiferianus MCCC E385 assessed as cell growth inhibition measured after 24 hrs by resazurin dye based assay; type: functional
Vibrio vulnificus [6] = experiment: Antimicrobial activity against Vibrio vulnificus MISR 20716 assessed as bacterial growth inhibition measured after 24 hrs by broth microdilution assay; type: functional
Vibrio parahaemolyticus [7] = experiment: Antimicrobial activity against Vibrio parahaemolyticus MISR 21116 assessed as bacterial growth inhibition measured after 24 hrs by broth microdilution assay; type: functional
Vibrio alginolyticus [8] = experiment: Antimicrobial activity against Vibrio alginolyticus MISR 30816 assessed as bacterial growth inhibition measured after 24 hrs by broth microdilution assay; type: functional
Vibrio anguillarum [9] = experiment: Antimicrobial activity against Vibrio anguillarum assessed as zone of inhibition per disk at 100 ug; type: functional; details: read-out: IZ
Vibrio anguillarum [10] = experiment: Antimicrobial activity against Vibrio anguillarum assessed as bacterial growth inhibition by well diffusion method; type: functional
Vibrio natriegens = experiment: Antimicrobial activity against Vibrio natriegens assessed as bacterial growth inhibition; type: functional
Vibrio mediterranei = experiment: Antimicrobial activity against Vibrio mediterranei assessed as bacterial growth inhibition; type: functional
Vibrio brasiliensis = experiment: Antimicrobial activity against Vibrio brasiliensis assessed as bacterial growth inhibition; type: functional
Vibrio alginolyticus [11] = experiment: Antimicrobial activity against Vibrio alginolyticus assessed as bacterial growth inhibition; type: functional
Vibrio harveyi [12] = experiment: Antimicrobial activity against Vibrio harveyi assessed as zone of inhibition; type: functional
Vibrio anguillarum [13] = experiment: Antimicrobial activity against Vibrio anguillarum assessed as zone of inhibition; type: functional
Vibrio parahaemolyticus [14] = experiment: Antimicrobial activity against Vibrio parahaemolyticus assessed as zone of inhibition; type: functional
Vibrio splendidus = experiment: Antimicrobial activity against Vibrio splendidus assessed as zone of inhibition; type: functional
Vibrio parahaemolyticus [15] = experiment: Antimicrobial activity against Vibrio parahaemolyticus QDIO-10 assessed as bacterial growth inhibition; type: functional
Vibrio harveyi [16] = experiment: Antimicrobial activity against Vibrio harveyi QDIO-9 assessed as bacterial growth inhibition; type: functional
Vibrio parahaemolyticus [17] = experiment: Antibacterial activity against Vibrio parahaemolyticus assessed as bacterial growth inhibition by broth microdilution; type: functional
Vibrio vulnificus [18] = experiment: Antimicrobial activity against Vibrio vulnificus MCCC E1758 assessed as bacterial growth inhibition by resazurin dye based assay; type: functional
Vibrio vulnificus [19] = experiment: Antimicrobial activity against Vibrio vulnificus MCCC E333 assessed as bacterial growth inhibition by resazurin dye based assay; type: functional
Vibrio harveyi [20] = experiment: Antimicrobial activity against Vibrio harveyi BB120 assessed as bacterial growth reduction by bioluminescence based Quorum-Sensing assay; type: functional, organism-based
Vibrio parahaemolyticus [21] = experiment: Antimicrobial activity against Vibrio parahaemolyticus MTCC451 assessed as zone of inhibition in diameter per disc at 100 ug measured for 24 to 72 hrs; type: functional; details: time 24-72 hrs, read-out: IZ
Vibrio vulnificus [22] = experiment: Antimicrobial activity against Vibrio vulnificus MTCC1145 assessed as zone of inhibition in diameter per disc at 100 ug measured for 24 to 72 hrs; type: functional; details: time 24-72 hrs, read-out: IZ
Vibrio parahaemolyticus [23] = experiment: Antibacterial activity against Vibrio parahaemolyticus assessed as bacterial growth inhibition by agar dilution method; type: functional

Question: For `O=C(O)c1cc(Cl)c[nH]1`, which MIC (Vibrio parahaemolyticus [1]) is on record?
Answer: 25 µg/mL (≈ 172 µM)

Question: What about the MIC (Vibrio cholerae) of the same molecule?
Answer: 100 µg/mL (≈ 687 µM)

Question: What does the source list for `CC(C)(O)CCCC(C)(O)c1ccc(C(=O)O)cc1O` (stereo not given)?
Answer: MIC (Vibrio parahaemolyticus [2]): 4 µg/mL (≈ 14.2 µM); MIC (Vibrio harveyi [3]): 4 µg/mL (≈ 14.2 µM); MIC (Vibrio anguillarum [4]): 4 µg/mL (≈ 14.2 µM)

Question: `COc1cc2oc3c(OC)c(-c4ccc(O)c(CC=C(C)C)c4)cc(OC)c3c2cc1O` was tested. Which MIC (Vibrio campbellii) did it give?
Answer: 15.6 µg/mL (≈ 35.9 µM)

Question: And the MIC (Vibrio vulnificus [5])?
Answer: 7.77 µg/mL (≈ 17.9 µM)

Question: What about the MIC (Vibrio rotiferianus) of the same molecule?
Answer: 7.75 µg/mL (≈ 17.8 µM)

Question: For `C[C@@H]1CCC/C=C/[C@@H]2O[C@H](C[C@@H](O)C/C=C\C=C\[C@@H](O)C/C=C/C=C\C(=O)O1)[C@H]2O`, which MIC (Vibrio vulnificus [6]) is on record?
Answer: 64 µg/mL (≈ 153 µM)

Question: And the MIC (Vibrio parahaemolyticus [7])?
Answer: 64 µg/mL (≈ 153 µM)

Question: What about the MIC (Vibrio alginolyticus [8]) of the same molecule?
Answer: 64 µg/mL (≈ 153 µM)

Question: `COc1cc(O)c2c(=O)oc3cc(O)cc(C)c3c2c1` was tested. Which zone of inhibition at 100 µg/disc (Vibrio anguillarum [9]) did it give?
Answer: 9 mm

Question: Which MIC (Vibrio parahaemolyticus [1]) does the source give for `O=C(O)c1ccc[nH]1` here?
Answer: 25 µg/mL (≈ 225 µM)

Question: And the MIC (Vibrio cholerae)?
Answer: 50 µg/mL (≈ 450 µM)

Question: `C=C(C)[C@H]1O[C@H]2CC[C@@]3(C)[C@@](O)(CC[C@@]4(O)[C@@H]5OC(C)(C)[C@H]6C[C@@H]7C(=C)Cc8c(Cl)cc9[nH]c(c5c9c8[C@@]76O)[C@]34C)[C@]23O[C@@H]3[C@H]1O` was tested. Which MIC (Vibrio anguillarum [10]) did it give?
Answer: 16 µg/mL (≈ 24.6 µM)

Question: For `Cc1cc2c(c(=O)[nH]1)O[C@H]([C@@H](O)CC(C)C)O2`, which MIC (Vibrio natriegens) is on record?
Answer: 0.001 µg/mL (≈ 0.00418 µM)

Question: For `CC(C)[C@@H](C)/C=C/[C@@H](C)[C@H]1CC[C@@H]2[C@]1(C)CCC1[C@@]23OO[C@]2(C=C3O)C[C@@H](O)CC[C@]12C` (stereo not given in full), which MIC (Vibrio mediterranei) is on record?
Answer: 8 µg/mL (≈ 18 µM)

Question: And the MIC (Vibrio brasiliensis)?
Answer: 32 µg/mL (≈ 72 µM)

Question: `COC(=O)[C@@H]1CCCN1C(=O)c1cc2c([nH]c3cc(OC)ccc32)c(C=C(C)C)n1` was tested. Which MIC (Vibrio alginolyticus [11]) did it give?
Answer: 32 µg/mL (≈ 78.5 µM)

Question: Which results are given for `CC(=O)N[C@H]1[C@@H](O[C@]2(C)C=C[C@@H]([C@@H](C)CCC=C(C)C)CC2)O[C@H](CO)[C@@H](O)[C@@H]1O`?
Answer: MIC (Vibrio harveyi [12]): 6.1 µg/mL (≈ 14.3 µM); MIC (Vibrio anguillarum [13]): 6.1 µg/mL (≈ 14.3 µM); inhibition zone (IZ) (Vibrio parahaemolyticus [14]): 6.1 mm; MIC (Vibrio splendidus): 6.1 µg/mL (≈ 14.3 µM)

Question: For `CC(C)[C@@H](C)/C=C/[C@@H](C)[C@H]1CC[C@H]2C3=CC(=O)[C@@]45C[C@@H](O)CC[C@]4(C)[C@]3(CC[C@]12C)O5`, which MIC (Vibrio brasiliensis) is on record?
Answer: 16 µg/mL (≈ 37.5 µM)

Question: Which MIC (Vibrio parahaemolyticus [2]) does the source give for `COC(=O)c1ccc([C@](C)(O)CCCC(C)(C)O)c(O)c1` here?
Answer: 4 µg/mL (≈ 13.5 µM)

Question: What about the MIC (Vibrio harveyi [3]) of the same molecule?
Answer: 4 µg/mL (≈ 13.5 µM)

Question: And the MIC (Vibrio anguillarum [4])?
Answer: 4 µg/mL (≈ 13.5 µM)

Question: Which results are given for `C=C[C@@]1(C)CCC2=C(C(=O)C=C3C(C)(C)CCC[C@]32O)[C@H]1O`?
Answer: MIC (Vibrio parahaemolyticus [15]): 8 µg/mL (≈ 26.5 µM); MIC (Vibrio harveyi [16]): 8 µg/mL (≈ 26.5 µM)

Question: `CO[C@](C)(CCCC(C)(C)O)c1ccc(C(=O)O)cc1O` was tested. Which MIC (Vibrio parahaemolyticus [2]) did it give?
Answer: 4 µg/mL (≈ 13.5 µM)

Question: And the MIC (Vibrio harveyi [3])?
Answer: 4 µg/mL (≈ 13.5 µM)

Question: And the MIC (Vibrio anguillarum [4])?
Answer: 4 µg/mL (≈ 13.5 µM)

Question: For `CC1(C)C=Cc2c(ccc3c2[N+]([O-])=C2C3CC34NC(=O)[C@@]5(CCCN5C3=O)C[C@H]4C2(C)C)O1` (stereo not given in full), which MIC (Vibrio alginolyticus [11]) is on record?
Answer: 16 µg/mL (≈ 35.8 µM)

Question: And the MIC (Vibrio parahaemolyticus [14]; Vibrio parahaemolyticus)?
Answer: 8 µg/mL (≈ 17.9 µM)

Question: `C[C@]12CC[C@H](O)[C@](C)(CO)[C@@H]1CC[C@]1(C)[C@@H]2C[C@@H](O)[C@@H]2[C@@]3(C)CC[C@H]([C@](C)(O)CO)[C@@H]3CC[C@]21C` was tested. Which MIC (Vibrio alginolyticus [11]) did it give?
Answer: 16 µg/mL (≈ 32.5 µM)

Question: How did the MIC (Vibrio parahaemolyticus [17]) turn out when `COC(=O)[C@@H](C)CCc1cc(O)c(C)cc1O` was run?
Answer: 12.5 µg/mL (≈ 52.5 µM)

Question: `Cc1c(O)c(C)c2c(c1O)C(=O)O[C@](C)(O)[C@H]2C` was tested. Which MIC (Vibrio vulnificus [18]) did it give?
Answer: 16.6 µg/mL (≈ 65.8 µM)

Question: What about the MIC (Vibrio vulnificus [19]) of the same molecule?
Answer: 15.3 µg/mL (≈ 60.7 µM)

Question: Which EC50 (Vibrio harveyi [20]) does the source give for `CC(C)CC(=O)NCCc1ccccc1` here?
Answer: 9 µg/mL (≈ 43.8 µM)

Question: What does the source list for `C[C@@H]1CCC/C=C/[C@H](O)C[C@@H](O)C/C=C\C=C\[C@@H](O)C/C=C/C=C\C(=O)O1`?
Answer: MIC (Vibrio vulnificus [6]): 64 µg/mL (≈ 170 µM); MIC (Vibrio parahaemolyticus [7]): 64 µg/mL (≈ 170 µM); MIC (Vibrio alginolyticus [8]): 64 µg/mL (≈ 170 µM)

Question: For `CC[C@@H](O)/C=C/CC(=O)O[C@@H]1/C=C/C=C\C[C@H](O)C[C@@H](O)/C=C/C=C\CCC[C@@H](C)OC(=O)/C=C\C=C\C1`, which zone of inhibition at 100 µg/disc (Vibrio parahaemolyticus [21]) is on record?
Answer: 16 mm

Question: And the zone of inhibition at 100 µg/disc (Vibrio vulnificus [22])?
Answer: 14.3 mm

Question: For `CC(C)[C@H]1C(=O)N(C)[C@@H](C)C(=O)NCCC[C@H](NC(=O)/C=C/C=C/C(=O)O)C(=O)N1C`, which MIC (Vibrio parahaemolyticus [23]) is on record?
Answer: 3.13 µM (≈ 1.37 µg/mL)
